In ChEMBL document CHEMBL1143623, “Thyroid receptor ligands. 3. Design and synthesis of 3,5-dihalo-4-alkoxyphenylalkanoic acids as indirect antagonists of the thyroid hormone receptor” (J Med Chem, 2005) one finds IC50 and Ki data, which are given here for 14 compounds.

For assay [1], the target named is T1, Thyroid hormone receptor alpha (Homo sapiens, UniProt P10827).
T1 sequence (P10827 whole entry): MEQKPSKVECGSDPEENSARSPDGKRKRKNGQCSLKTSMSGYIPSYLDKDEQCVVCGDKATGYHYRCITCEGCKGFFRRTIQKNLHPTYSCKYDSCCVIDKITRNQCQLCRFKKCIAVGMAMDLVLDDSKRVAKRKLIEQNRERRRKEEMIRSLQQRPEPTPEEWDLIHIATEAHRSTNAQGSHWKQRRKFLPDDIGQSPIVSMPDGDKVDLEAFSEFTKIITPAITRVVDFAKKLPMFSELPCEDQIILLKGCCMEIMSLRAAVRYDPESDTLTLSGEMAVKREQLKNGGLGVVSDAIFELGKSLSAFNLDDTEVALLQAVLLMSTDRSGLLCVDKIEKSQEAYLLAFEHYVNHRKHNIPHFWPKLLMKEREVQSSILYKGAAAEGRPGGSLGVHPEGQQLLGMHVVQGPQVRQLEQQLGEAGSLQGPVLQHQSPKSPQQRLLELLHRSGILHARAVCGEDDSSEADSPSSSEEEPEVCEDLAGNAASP
The assay is described as follows: Inhibitory activity against human TRAFalpha.

In assay [2] the target is T2, Thyroid hormone receptor beta (Homo sapiens, UniProt P10828).
T2 sequence (P10828 whole entry): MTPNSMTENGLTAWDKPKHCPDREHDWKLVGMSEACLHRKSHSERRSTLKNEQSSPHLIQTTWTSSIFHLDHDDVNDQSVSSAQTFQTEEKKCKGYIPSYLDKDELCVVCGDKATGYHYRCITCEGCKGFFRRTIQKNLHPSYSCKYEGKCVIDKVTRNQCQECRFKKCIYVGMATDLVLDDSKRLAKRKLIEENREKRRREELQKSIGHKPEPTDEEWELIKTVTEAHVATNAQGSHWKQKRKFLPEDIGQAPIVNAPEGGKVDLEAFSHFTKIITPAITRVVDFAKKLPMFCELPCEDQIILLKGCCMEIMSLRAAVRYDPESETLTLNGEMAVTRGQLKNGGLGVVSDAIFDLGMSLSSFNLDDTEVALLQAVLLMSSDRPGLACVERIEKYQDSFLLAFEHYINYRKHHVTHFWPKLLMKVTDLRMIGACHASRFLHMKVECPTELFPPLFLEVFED
As to the kind of experiment: Inhibitory activity against human TRAFbeta.

The target of assay [3] is T2, Thyroid hormone receptor beta. The assay is described as follows: Inhibitory activity against human Thyroid hormone receptor beta.
Assay [4] deals with T1, Thyroid hormone receptor alpha. As to the kind of experiment: Inhibitory activity against human Thyroid hormone receptor alpha.
The target of the next assay is T3, Thyroid hormone receptor (Homo sapiens, UniProt P10827+P10828).
T3 sequence (P10827 whole entry): T1 sequence (P10827 whole entry)
T3 sequence (P10828 whole entry): T2 sequence (P10828 whole entry)
As to the kind of experiment: Binding affinity for human Thyroid hormone receptor. The assay is classed as protein-complex assay.

Usually IC50 stands for the midpoint of a concentration-inhibition curve. Consider `CCCCc1oc2ccccc2c1C(=O)c1cc(I)c(CCN(CC)CC)c(I)c1`, for which the IC50 in assay [1] is greater than 10000 nM; in assay [2] it was greater than 10000 nM; in assay [3], 600 nM; in assay [4], 650 nM.
Regarding `CC(C)CCOc1c(Br)cc(CC(=O)O)cc1Br`, the values for the concentration for half-maximal inhibition (IC50) in assay [3] and in assay [4] were 18000 nM and 13000 nM, respectively.
For `O=C(O)CCc1cc(Br)c(OCC2CCCCC2)c(Br)c1`, the half-maximal inhibitory concentration (IC50) came to 530 nM in assay [1], 120 nM in assay [2], 190 nM in assay [3] and 460 nM in assay [4].
`Cc1oc2ccccc2c1Cc1cc(I)c(OCC(=O)O)c(I)c1`: the IC50 was found to be 2200 nM in assay [1] and 4100 nM in assay [2].
Consider `CCCCOc1c(Br)cc(CC(=O)O)cc1Br`, for which the figures for the half-inhibitory concentration (IC50) in assay [3] and in assay [4] were 1900 nM and 26000 nM, respectively.
The Ki is a measure of affinity in units of concentration, obtained from inhibition or displacement. The low end stands for a stronger hold on the target, the high end for a looser hold on the target. With `CC(C)c1cc(Oc2c(Br)cc(C(=O)O)cc2Br)cc(C(C)C)c1O`, the IC50 in assay [1] was determined as 1100 nM; in assay [2], 4500 nM. Moreover, the affinity at Thyroid hormone receptor, expressed as Ki, was 1380 nM.
As to `CCC(CC)COc1c(Br)cc(CC(=O)O)cc1Br`, the IC50 in assay [1] is 820 nM; in assay [2] it was 700 nM; in assay [3], 800 nM; in assay [4], 6900 nM.
Turning to `CCOc1c(Br)cc(CC(=O)O)cc1Br`, the half-maximal inhibitory concentration (IC50) came to 32000 nM in assay [3] and 160000 nM in assay [4].
Take `CCCCCCOc1c(Br)cc(CCC(=O)O)cc1Br`: the concentration for half-maximal inhibition (IC50) in assay [1] was found to be 600 nM; in assay [2] it was 1000 nM; in assay [3], 360 nM; in assay [4], 1100 nM.
As to `CCC(CC)COc1c(Br)cc(CCC(=O)O)cc1Br`, the half-inhibitory concentration (IC50) in assay [3] came out at 810 nM; in assay [4] it was 1600 nM.
With `CCCCCOc1c(Br)cc(CC(=O)O)cc1Br`, the 50% inhibitory concentration (IC50) in assay [3] was 5700 nM; in assay [4] it was 20000 nM.
With `CC(C)CCOc1c(Br)cc(CCC(=O)O)cc1Br`, the half-maximal inhibitory concentration (IC50) in assay [3] turned out to be 1800 nM; in assay [4] it was 4400 nM.
Turning to `O=C(O)Cc1cc(Br)c(OCC2CCCCC2)c(Br)c1`, the IC50 in assay [1] came to 420 nM; in assay [2] it was 520 nM; in assay [3], 770 nM; in assay [4], 2700 nM.
For `CCCCCCOc1c(Br)cc(CC(=O)O)cc1Br` the same measures were 700 nM, 800 nM, 1500 nM and 5200 nM.
